≈ marks a conversion by molar mass, not a printed value.
Key:
E. coli ΔtolC (JW5503) = experiment: MIC, broth microdilution (CLSI); type: cell-based, Escherichia coli; details: Escherichia coli
Experimental: (§1) II. Materials and Methods for Biological Experiments
(§2) S. aureus ATCC 29213 and E. coli MG1655 were obtained from the American Type Culture Collection (ATCC). E. coli BW25113 and E. coli JW5503 were obtained from the Keio Collection. AR-bank strains were obtained from the Centers for Disease Control and Prevention and FDA Antibiotic Resistance Isolate Bank.
(§3) Antimicrobial susceptibility tests
(§4) Susceptibility testing was performed in biological triplicate, unless noted otherwise, using the micro-dilution broth method as outlined by the Clinical and Laboratory Standards Institute. Bacteria were cultured with cation-adjusted Mueller Hinton broth (Sigma Aldrich, catalogue number: 90922). […]
(§5) NH3: m/z 391.2 → 171.0. Fabimycin: m/z 405.3 → 145.3. Power analysis was not used to determine the number of replicates. Error bars represent the standard error of the mean of three biological replicates. All compounds evaluated in biological assays were ≥95% pure.

E. coli MG1655 [1] = experiment: MIC, broth microdilution (CLSI); type: cell-based; details: Escherichia coli
Experimental: as §1, §2, §3, §4, §5

S. aureus ATCC 29213 = experiment: MIC, broth microdilution (CLSI); type: cell-based; details: Staphylococcus aureus, ATCC29213; S. aureus 29213
Experimental: as §1, §2, §3, §4, §5

E. coli MG1655 [2] = experiment: Serial passaging; type: cell-based, Escherichia coli; details: E. coli MG1655, subinhibitory concentration, 21 days
Experimental: Serial passaging procedure was done as reported in literature.5 Briefly, E. coli MG1655 cells were grown in 0.6 mL of MH media containing fabimycin and ciprofloxacin (control) at different concentrations. Cells were added to the respective compounds at 0.25X, 0.5X, 1X, 2X, and 4X to start. At 22-24 hours the cultures were checked for growth. […]
compound at varying concentrations based off of the MIC. This serial passaging was repeated for 21 days. […]
All cells were cultured […]
at 37 °C under a 5% CO2 environment. Cell lines were authenticated by a commercial vendor and inspected visually in house. Cell lines were not tested for Mycoplasma contamination. The media was prepared by the University of Illinois School of Chemical Sciences Cell Media Facility.
H. sapiens HFF-1, A549, and HepG2 cells were seeded (3,000-6,000 cells/well) in a 96-well plate (Greiner Bio-One;

A. baumannii AR-0313 = experiment: MIC, broth microdilution (CLSI); type: cell-based; details: Acinetobacter baumannii, AR0313; A. baumannii AR-0313 clinical isolate; † = dose-independent trailing growth
Experimental: as §1, §2, §3, §4
(§6) Error bars represent the standard error of the mean of three biological replicates. All compounds evaluated in biological assays were ≥95% pure.

K. pneumoniae AR-0113 = experiment: MIC, broth microdilution (CLSI); type: cell-based; details: Klebsiella pneumoniae, AR0113; K. pneumoniae AR-0113 clinical isolate
Experimental: as §1, §2, §3, §4, §6

A. baumannii AR-0273 = experiment: MIC, broth microdilution (CLSI); type: cell-based; details: Acinetobacter baumannii, AR0273; A. baumannii AR-0273 clinical isolate
Experimental: as §1, §2, §3, §4, §5

K. pneumoniae AR-0066 = experiment: MIC, broth microdilution (CLSI); type: cell-based; details: Klebsiella pneumoniae, AR0066; K. pneumoniae AR-0066 clinical isolate
Experimental: as §1, §2, §3, §4, §5

E. coli AR-0085 = experiment: MIC, broth microdilution (CLSI); type: cell-based; details: Escherichia coli, AR0085; E. coli AR-0085 clinical isolate
Experimental: as §1, §2, §3, §4, §5

K. pneumoniae BAA-2472 = experiment: MIC, broth microdilution (CLSI); type: cell-based; details: Klebsiella pneumoniae, BAA2472
Experimental: as §1, §2, §3, §4, §5

E. coli AR-0048 = experiment: MIC, broth microdilution (CLSI); type: cell-based; details: Escherichia coli, AR0048; E. coli AR-0048 clinical isolate
Experimental: as §1, §2, §3, §4, §5

A. baumannii AR-0299 = experiment: MIC, broth microdilution (CLSI); type: cell-based; details: Acinetobacter baumannii, AR0299; A. baumannii AR-0299 clinical isolate; † = dose-independent trailing growth
Experimental: as §1, §2, §3, §4, §5

K. pneumoniae AR-0560 = experiment: MIC, broth microdilution (CLSI); type: cell-based; details: Klebsiella pneumoniae, AR0560; K. pneumoniae AR-0560 clinical isolate
Experimental: as §1, §2, §3, §4, §5

A. baumannii AR-0033 = experiment: MIC, broth microdilution (CLSI); type: cell-based; details: Acinetobacter baumannii, AR0033; A. baumannii AR-0033 clinical isolate; † = dose-independent trailing growth
Experimental: as §1, §2, §3, §4, §5

SMILES | MIC (E. coli ΔtolC (JW5503)) | MIC (E. coli MG1655 [1]) | MIC (S. aureus ATCC 29213) | increase in the MIC after serial passaging (E. coli MG1655 [2]) | MIC (A. baumannii AR-0313) | MIC (K. pneumoniae AR-0113) | MIC (A. baumannii AR-0273) | MIC (K. pneumoniae AR-0066) | MIC (E. coli AR-0085) | MIC (K. pneumoniae BAA-2472) | MIC (E. coli AR-0048) | MIC (A. baumannii AR-0299) | MIC (K. pneumoniae AR-0560) | MIC (A. baumannii AR-0033)
Cc1c(CN(C)C(=O)/C=C/c2cnc3c(c2)CCC(CCN)C(=O)N3)oc2ccccc12 (racemic) [(±)-9] | 0.125 µg/mL (≈ 0.289 µM) | 32 µg/mL (≈ 74 µM) | 0.062 µg/mL (≈ 0.143 µM) |  |  |  |  |  |  |  |  |  |  | 
O=C(O)c1cn(C2CC2)c2cc(N3CCNCC3)c(F)cc2c1=O [ciprofloxacin, reference compound] |  |  |  | 128 fold |  |  |  |  |  |  |  |  |  | 
Cc1c(CN(C)C(=O)/C=C/c2cnc3c(c2)CC2(CCC(N)CC2)C(=O)N3)oc2ccccc12 (racemic) [(±)-5] | 0.062 µg/mL (≈ 0.135 µM) | 16 µg/mL (≈ 34.9 µM) | 0.016 µg/mL (≈ 0.0349 µM) |  |  |  |  |  |  |  |  |  |  | 
Cc1c(CN(C)C(=O)/C=C/c2cnc3c(c2)CC2(CNC2)C(=O)N3)oc2ccccc12 [compound 2] | 0.031 µg/mL (≈ 0.0744 µM) | 4 µg/mL (≈ 9.6 µM) | 0.016 µg/mL (≈ 0.0384 µM) |  | 16 µg/mL (≈ 38.4 µM) | 16 µg/mL (≈ 38.4 µM) | 8 µg/mL (≈ 19.2 µM) | 8 µg/mL (≈ 19.2 µM) | 4 µg/mL (≈ 9.6 µM) | 8 µg/mL (≈ 19.2 µM) | 8 µg/mL (≈ 19.2 µM) | 16 µg/mL (≈ 38.4 µM) | 16 µg/mL (≈ 38.4 µM) | 8 µg/mL (≈ 19.2 µM)
Cc1c(CN(C)C(=O)/C=C/c2cnc3c(c2)CC2(CCC(CN)CC2)C(=O)N3)oc2ccccc12 (racemic) [(±)-6] | 0.062 µg/mL (≈ 0.131 µM) | 16 µg/mL (≈ 33.9 µM) | 0.031 µg/mL (≈ 0.0656 µM) |  |  |  |  |  |  |  |  |  |  | 
Cc1c(CN(C)C(=O)/C=C/c2cnc3c(c2)CCC(CN)C(=O)N3)oc2ccccc12 (racemic) [(±)-8] | 0.125 µg/mL (≈ 0.299 µM) | 8 µg/mL (≈ 19.1 µM) | 0.031 µg/mL (≈ 0.0741 µM) |  | > 32 µg/mL | 32 µg/mL (≈ 76.5 µM) | 32 µg/mL (≈ 76.5 µM) | 32 µg/mL (≈ 76.5 µM) | 8 µg/mL (≈ 19.1 µM) | 32 µg/mL (≈ 76.5 µM) | 16 µg/mL (≈ 38.2 µM) | 32 µg/mL (≈ 76.5 µM) | 16 µg/mL (≈ 38.2 µM) | 16 µg/mL (≈ 38.2 µM)
